Like-named read-outs stand apart in the source and are kept apart here.
What was measured:
β-D-glucosidase = experiment: Glycosidase assay, β-D-glucosidase (almond); format: biochemical; conditions: 0.2 mM, Almond (Prunus sp.), negative value = stabilisation/promotion
Experimental: (§1) All enzymes and para-nitrophenyl substrates were purchased from Sigma, with the exception of beta-mannosidase which came from Megazyme. Enzymes were assayed at 27° C. in 0.1M citric acid/0.2M disodium hydrogen phosphate buffers at the optimum pH for the enzyme. The incubation mixture consisted of 10 μl enzyme solution, 10 μl of 1 mg/ml aqueous solution of sample and 50 μl of the appropriate 5 mM para-nitrophenyl substrate made up in buffer at the optimum pH for the enzyme. The reactions were stopped by addition of 70 μl 0.4M glycine (pH 10.4) during the exponential phase of the reaction, which had been determined at the beginning using uninhibited assays in which water replaced inhibitor. Final absorbances were read at 405 nm using a Versamax microplate reader (Molecular Devices). Assays were carried out in triplicate, and the values given are means of the three replicates per assay. The method was carried out as described in Watson et al. (1997) Phytochemistry 46 (2): 255-259.

[1] = system: N-acetyl-β-D-glucosaminidase; experiment: Glycosidase assay, N-acetyl-β-D-glucosaminidase (jack bean); format: biochemical; conditions: 0.2 mM, negative value = stabilisation/promotion
Experimental: as §1

β-D-galactosidase = experiment: Glycosidase assay, β-D-galactosidase (bovine liver); format: biochemical; conditions: 0.2 mM, negative value = stabilisation/promotion
Experimental: as §1

[2] = target: T1, N-acetyl-β-D-hexosaminidase (Aspergillus oryzae, UniProt Q8J2T0); experiment: Glycosidase assay, N-acetyl-β-D-hexosaminidase (Aspergillus oryzae); format: biochemical; conditions: 0.2 mM, negative value = stabilisation/promotion, read-out: percentage inhibition
T1 construct: purchased Sigma
Experimental: as §1

β-glucuronidase [3] = target: T2, β-glucuronidase (Bos taurus, UniProt A3KMY8); experiment: Glycosidase assay, β-glucuronidase (bovine liver); format: biochemical; conditions: for inhibition at 200 µM: read-out: percentage inhibition
T2 sequence (A3KMY8 1-652): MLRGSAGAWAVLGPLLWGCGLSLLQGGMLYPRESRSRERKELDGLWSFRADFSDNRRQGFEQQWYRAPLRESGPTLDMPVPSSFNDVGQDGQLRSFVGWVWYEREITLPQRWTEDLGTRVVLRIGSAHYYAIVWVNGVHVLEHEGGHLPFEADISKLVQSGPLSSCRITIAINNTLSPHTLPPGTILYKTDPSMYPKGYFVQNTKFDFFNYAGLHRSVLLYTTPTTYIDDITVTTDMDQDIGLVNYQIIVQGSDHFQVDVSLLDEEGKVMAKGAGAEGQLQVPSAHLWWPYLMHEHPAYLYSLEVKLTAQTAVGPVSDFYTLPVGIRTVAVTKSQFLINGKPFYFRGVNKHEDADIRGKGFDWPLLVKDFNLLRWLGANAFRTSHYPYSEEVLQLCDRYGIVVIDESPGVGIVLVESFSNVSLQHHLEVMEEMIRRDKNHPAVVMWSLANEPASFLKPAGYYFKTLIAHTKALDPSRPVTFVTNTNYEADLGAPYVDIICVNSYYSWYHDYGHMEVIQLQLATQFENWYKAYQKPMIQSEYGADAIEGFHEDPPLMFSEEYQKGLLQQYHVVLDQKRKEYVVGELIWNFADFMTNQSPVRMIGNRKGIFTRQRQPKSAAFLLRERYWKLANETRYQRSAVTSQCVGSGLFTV
Experimental: as §1

[4] = system: N-acetyl-β-D-glucosaminidase; experiment: Glycosidase assay, N-acetyl-β-D-glucosaminidase (bovine kidney); format: biochemical; conditions: for percentage inhibition: 0.2 mM, N-acetyl-β-D-glucosaminidase, Bovine kidney, negative value = stabilisation/promotion; for IC50: bovine hexosaminidase, read-out: IC50 against the bovine hexosaminidase
Experimental: as §1

Amyloglucosidase = target: T3, Amyloglucosidase (Aspergillus niger, UniProt P69328); experiment: Glycosidase assay, amyloglucosidase (Aspergillus niger); format: biochemical; conditions: 0.2 mM, negative value = stabilisation/promotion, read-out: percentage inhibition
T3 construct: purchased Sigma
Experimental: as §1

β-glucuronidase [5] = target: T4, β-glucuronidase (Escherichia coli, UniProt P05804); experiment: Glycosidase assay, β-glucuronidase (E. coli); format: biochemical; conditions: 0.2 mM, negative value = stabilisation/promotion, read-out: percentage inhibition
T4 construct: purchased Sigma
Experimental: as §1

α-D-glucosidase [6] = target: T5, α-D-glucosidase (Oryza sativa subsp. japonica, UniProt Q653V7); experiment: Glycosidase assay, α-D-glucosidase (rice); format: biochemical; conditions: 0.2 mM, Rice (Oryza saliva), negative value = stabilisation/promotion, read-out: percentage inhibition
T5 construct: purchased Sigma
Experimental: as §1

α-L-fucosidase = target: T6, α-L-fucosidase (Bos taurus, UniProt Q2KIM0); experiment: Glycosidase assay, α-L-fucosidase (bovine kidney); format: biochemical; conditions: 0.2 mM, negative value = stabilisation/promotion, read-out: percentage inhibition
T6 construct: purchased Sigma
T6 sequence (Q2KIM0 23-468): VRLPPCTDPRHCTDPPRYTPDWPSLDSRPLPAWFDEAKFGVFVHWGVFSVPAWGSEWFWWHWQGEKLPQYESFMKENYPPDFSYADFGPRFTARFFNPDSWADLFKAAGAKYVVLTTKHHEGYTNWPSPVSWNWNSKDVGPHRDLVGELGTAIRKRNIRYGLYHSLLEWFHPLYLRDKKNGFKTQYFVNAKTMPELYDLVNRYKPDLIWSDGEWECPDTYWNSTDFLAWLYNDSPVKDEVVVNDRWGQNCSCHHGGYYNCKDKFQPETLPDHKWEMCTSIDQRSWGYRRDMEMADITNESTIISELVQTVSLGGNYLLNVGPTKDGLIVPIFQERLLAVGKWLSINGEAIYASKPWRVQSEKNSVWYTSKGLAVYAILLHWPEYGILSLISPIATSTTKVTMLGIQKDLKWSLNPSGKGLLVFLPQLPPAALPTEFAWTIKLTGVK
Experimental: as §1

α-D-galactosidase = target: T7, α-D-galactosidase (Coffea arabica, UniProt Q42656); experiment: Glycosidase assay, α-D-galactosidase (green coffee bean); format: biochemical; conditions: 0.2 mM, Green coffee bean (Coffea sp.), negative value = stabilisation/promotion, read-out: percentage inhibition
T7 construct: purchased Sigma
Experimental: as §1

α-D-giucosidase = target: T8, α-D-giucosidase (Saccharomyces cerevisiae, UniProt P53341); experiment: Glycosidase assay, α-D-glucosidase (Saccharomyces cerevisiae); format: biochemical; conditions: 0.2 mM, negative value = stabilisation/promotion, read-out: percentage inhibition
T8 construct: purchased Sigma
Experimental: as §1

glycogen phosphorylase b = target: T9, glycogen phosphorylase b (Oryctolagus cuniculus, UniProt P00489); experiment: Glycogen phosphorylase (GPb) activity; format: biochemical
T9 construct: purchased Sigma-Aldrich Fine Chemicals (St. Louis, Mo, USA)
T9 sequence (P00489 1-843): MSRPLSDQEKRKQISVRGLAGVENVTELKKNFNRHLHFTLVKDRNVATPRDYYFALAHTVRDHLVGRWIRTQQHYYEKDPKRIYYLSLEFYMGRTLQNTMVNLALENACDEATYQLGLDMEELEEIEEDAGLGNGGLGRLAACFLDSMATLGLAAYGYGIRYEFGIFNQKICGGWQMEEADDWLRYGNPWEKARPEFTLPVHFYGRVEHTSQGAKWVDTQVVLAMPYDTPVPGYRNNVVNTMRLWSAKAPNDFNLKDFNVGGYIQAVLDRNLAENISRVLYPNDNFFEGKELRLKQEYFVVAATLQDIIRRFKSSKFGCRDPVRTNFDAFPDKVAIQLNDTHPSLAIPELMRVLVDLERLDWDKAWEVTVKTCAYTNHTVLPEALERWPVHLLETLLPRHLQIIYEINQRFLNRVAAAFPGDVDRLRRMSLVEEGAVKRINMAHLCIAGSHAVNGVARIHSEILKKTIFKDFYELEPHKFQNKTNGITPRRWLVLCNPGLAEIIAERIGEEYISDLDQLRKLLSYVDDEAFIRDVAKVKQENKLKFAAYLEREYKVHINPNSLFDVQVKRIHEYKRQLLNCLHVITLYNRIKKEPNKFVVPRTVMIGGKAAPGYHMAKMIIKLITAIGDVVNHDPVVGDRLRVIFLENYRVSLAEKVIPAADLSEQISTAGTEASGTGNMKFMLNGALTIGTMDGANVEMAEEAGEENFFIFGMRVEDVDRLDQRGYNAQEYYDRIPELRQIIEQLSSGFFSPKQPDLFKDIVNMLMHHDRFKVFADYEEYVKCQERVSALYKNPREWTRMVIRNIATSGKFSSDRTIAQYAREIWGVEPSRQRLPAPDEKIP
Experimental: N2-beta-D-Fructopyranos-1-yl-Arginine and 1-Deoxy-1-(N-γ-aminobutyric acid)fructose were tested on glycogen phosphorylase and found to give weak inhibition (14.2 and 5.5% respectively at 400 μM.
Materials. Phosphoglucomutase, glucose-6-phosphate dehydrogenase, glucose-1,6-bisphosphate, glycogen phosphorylase b, α-D-glucose 1-phosphate dipotassium salt hydrate were purchased from Sigma-Aldrich Fine Chemicals (St. Louis, Mo, USA). Glycogen and caffeine were purchased from Nacalai Tesque (Kyoto, Japan). Other chemicals were from Wako Pure Chemical industries (Osaka, Japan).
Measurement of GPb activity. GPb activity was measured in the direction of glycogenolysis using 2 mg/mL glycogen as the substrate in 45 mM phosphate buffer at pH 6.8, containing 0.1 mM EDTA. […] The rate of enzyme-catalysed reaction in the medium can be followed as the increase in absorbance at 340 nm and 25° C. due to the formation of NADPH. GPb activity was also measured in the direction of glycogen synthesis using 25 mM glucose-1-P as substrate in a 250 mM Tris-malate buffer (pH 6.8), containing 5 mg/mL glycogen, 1 mM AMP, 15 mM cysteine, and glycogen phosphorylase b. […] Pi was measured by the Fiske-Subbarow method. The rate of enzyme-catalysed reaction in the medium was followed as the Increase in absorbance at 660 nm.

Naringinase = experiment: Glycosidase assay, naringinase (Penicillium decumbens); format: biochemical; conditions: 0.2 mM, negative value = stabilisation/promotion
Experimental: as §1

α-D-mannosidase = target: T10, α-D-mannosidase (Canavalia ensiformis, UniProt C0HJB3); experiment: Glycosidase assay, α-D-mannosidase (jack bean); format: biochemical, Jack bean (Canavalia ensiformis); conditions: read-out: percentage inhibition
T10 construct: purchased Sigma
T10 sequence (C0HJB3 1-981): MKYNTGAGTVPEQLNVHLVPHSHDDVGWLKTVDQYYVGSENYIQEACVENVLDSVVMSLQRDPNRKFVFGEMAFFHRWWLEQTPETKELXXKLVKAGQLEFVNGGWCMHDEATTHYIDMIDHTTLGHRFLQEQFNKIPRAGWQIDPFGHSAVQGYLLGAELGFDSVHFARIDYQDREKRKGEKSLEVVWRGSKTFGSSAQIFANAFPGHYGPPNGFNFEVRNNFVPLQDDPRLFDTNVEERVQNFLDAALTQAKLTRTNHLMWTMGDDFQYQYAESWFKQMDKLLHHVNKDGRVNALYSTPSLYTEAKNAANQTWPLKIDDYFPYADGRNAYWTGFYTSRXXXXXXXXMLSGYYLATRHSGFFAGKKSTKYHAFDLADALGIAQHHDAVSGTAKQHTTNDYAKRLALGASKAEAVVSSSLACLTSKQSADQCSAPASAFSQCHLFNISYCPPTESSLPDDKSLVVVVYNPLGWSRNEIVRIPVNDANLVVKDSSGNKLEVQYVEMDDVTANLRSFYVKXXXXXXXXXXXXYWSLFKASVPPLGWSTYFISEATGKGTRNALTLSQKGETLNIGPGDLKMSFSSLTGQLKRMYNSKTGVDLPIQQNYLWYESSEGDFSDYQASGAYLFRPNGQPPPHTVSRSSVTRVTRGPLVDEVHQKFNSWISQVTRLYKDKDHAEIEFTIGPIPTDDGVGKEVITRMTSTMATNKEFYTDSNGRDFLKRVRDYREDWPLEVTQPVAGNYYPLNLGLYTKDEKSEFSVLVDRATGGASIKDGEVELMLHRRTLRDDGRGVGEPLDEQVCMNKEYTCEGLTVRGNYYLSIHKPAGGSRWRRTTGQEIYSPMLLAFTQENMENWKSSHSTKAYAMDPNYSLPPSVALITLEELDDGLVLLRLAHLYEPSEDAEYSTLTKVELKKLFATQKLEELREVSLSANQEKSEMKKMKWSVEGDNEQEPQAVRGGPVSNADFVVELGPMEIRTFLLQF
Experimental: as §1

α-D-glucosidase [7] = experiment: Glycosidase assay, α-D-glucosidase (Bacillus sterothermophilus); format: biochemical; conditions: 0.2 mM, negative value = stabilisation/promotion
Experimental: as §1

β-D-mannosidase = experiment: Glycosidase assay, β-D-mannosidase (Cellullomonas fimi); format: biochemical; conditions: 0.2 mM, negative value = stabilisation/promotion
Experimental: as §1

T3 sequence (P69328 25-640): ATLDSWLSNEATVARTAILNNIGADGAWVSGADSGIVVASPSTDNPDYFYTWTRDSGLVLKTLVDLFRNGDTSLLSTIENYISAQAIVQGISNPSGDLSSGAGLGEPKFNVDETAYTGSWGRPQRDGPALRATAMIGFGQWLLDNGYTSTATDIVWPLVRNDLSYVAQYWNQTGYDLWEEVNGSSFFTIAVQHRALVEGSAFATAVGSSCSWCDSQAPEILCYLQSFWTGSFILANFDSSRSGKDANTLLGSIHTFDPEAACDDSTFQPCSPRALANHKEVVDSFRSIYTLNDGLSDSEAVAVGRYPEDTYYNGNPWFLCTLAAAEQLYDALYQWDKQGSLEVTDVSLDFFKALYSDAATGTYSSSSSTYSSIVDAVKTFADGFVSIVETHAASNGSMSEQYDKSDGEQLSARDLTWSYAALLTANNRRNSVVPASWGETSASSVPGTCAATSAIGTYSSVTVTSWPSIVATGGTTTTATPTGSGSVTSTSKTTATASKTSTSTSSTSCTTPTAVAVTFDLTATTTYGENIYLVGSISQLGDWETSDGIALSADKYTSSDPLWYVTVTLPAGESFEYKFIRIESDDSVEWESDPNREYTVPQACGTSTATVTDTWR
T4 sequence (P05804 whole entry): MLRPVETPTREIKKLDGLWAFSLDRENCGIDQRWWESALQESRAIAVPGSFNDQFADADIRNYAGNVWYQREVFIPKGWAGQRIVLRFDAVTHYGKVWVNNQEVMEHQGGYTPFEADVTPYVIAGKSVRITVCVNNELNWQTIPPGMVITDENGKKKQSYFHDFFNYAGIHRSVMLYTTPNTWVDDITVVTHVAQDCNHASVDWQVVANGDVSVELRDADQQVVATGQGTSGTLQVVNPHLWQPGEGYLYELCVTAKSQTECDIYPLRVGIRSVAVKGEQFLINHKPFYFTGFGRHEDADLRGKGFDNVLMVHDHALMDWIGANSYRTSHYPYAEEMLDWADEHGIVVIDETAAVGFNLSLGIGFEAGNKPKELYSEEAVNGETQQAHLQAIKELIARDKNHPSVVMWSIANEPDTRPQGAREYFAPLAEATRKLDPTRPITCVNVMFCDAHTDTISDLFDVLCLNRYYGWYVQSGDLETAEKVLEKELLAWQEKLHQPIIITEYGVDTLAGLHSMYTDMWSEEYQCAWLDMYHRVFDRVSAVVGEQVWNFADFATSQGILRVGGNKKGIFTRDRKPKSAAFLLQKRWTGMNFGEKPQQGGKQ
T8 sequence (P53341 whole entry): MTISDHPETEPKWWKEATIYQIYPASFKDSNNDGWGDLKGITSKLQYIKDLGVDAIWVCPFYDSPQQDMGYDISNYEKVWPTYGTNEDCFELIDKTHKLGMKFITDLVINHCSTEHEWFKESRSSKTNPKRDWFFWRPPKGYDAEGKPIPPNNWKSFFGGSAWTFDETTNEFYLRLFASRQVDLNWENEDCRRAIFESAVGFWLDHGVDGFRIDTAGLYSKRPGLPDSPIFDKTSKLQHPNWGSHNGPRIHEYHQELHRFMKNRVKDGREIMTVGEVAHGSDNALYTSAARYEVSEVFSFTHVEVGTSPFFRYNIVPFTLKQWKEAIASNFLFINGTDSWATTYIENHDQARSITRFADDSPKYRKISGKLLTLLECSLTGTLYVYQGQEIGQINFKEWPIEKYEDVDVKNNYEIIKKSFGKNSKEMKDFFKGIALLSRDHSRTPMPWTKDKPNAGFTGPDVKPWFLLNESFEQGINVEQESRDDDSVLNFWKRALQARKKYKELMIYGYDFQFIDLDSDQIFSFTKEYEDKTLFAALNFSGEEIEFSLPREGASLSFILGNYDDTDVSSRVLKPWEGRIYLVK
T5 sequence (Q653V7 34-885): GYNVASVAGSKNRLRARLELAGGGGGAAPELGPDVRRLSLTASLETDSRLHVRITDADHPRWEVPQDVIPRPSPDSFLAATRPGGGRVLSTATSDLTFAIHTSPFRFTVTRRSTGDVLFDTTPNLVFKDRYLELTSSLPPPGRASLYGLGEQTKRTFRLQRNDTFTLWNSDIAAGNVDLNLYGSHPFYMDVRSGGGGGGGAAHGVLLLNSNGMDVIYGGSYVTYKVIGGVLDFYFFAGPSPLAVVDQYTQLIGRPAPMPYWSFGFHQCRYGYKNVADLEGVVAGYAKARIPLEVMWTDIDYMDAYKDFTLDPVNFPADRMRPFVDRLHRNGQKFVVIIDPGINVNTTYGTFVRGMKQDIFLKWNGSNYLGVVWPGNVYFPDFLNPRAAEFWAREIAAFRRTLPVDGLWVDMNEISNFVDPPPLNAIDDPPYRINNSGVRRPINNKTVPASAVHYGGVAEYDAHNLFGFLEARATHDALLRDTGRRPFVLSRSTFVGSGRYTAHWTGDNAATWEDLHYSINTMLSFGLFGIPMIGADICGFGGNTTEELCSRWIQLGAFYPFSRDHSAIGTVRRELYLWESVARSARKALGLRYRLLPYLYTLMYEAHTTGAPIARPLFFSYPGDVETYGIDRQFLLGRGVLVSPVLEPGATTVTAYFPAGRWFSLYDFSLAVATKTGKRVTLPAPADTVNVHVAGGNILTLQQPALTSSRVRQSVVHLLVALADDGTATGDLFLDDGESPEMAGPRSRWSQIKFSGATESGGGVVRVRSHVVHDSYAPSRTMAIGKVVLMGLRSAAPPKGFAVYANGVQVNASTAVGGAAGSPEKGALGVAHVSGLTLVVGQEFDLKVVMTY
T1 sequence (Q8J2T0 97-600): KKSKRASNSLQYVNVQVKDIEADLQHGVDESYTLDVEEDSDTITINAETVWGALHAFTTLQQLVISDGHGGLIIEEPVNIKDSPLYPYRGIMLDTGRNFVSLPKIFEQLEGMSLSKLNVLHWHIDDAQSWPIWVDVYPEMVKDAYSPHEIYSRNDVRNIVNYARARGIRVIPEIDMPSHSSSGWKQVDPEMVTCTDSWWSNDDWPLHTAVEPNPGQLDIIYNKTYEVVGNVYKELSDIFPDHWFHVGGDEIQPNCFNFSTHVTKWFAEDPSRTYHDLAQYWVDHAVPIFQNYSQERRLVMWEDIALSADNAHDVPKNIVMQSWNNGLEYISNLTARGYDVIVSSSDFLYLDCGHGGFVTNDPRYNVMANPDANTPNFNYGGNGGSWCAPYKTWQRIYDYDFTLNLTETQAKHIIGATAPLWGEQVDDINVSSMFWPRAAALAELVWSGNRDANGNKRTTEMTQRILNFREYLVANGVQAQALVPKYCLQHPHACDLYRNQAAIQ
T7 sequence (Q42656 16-378): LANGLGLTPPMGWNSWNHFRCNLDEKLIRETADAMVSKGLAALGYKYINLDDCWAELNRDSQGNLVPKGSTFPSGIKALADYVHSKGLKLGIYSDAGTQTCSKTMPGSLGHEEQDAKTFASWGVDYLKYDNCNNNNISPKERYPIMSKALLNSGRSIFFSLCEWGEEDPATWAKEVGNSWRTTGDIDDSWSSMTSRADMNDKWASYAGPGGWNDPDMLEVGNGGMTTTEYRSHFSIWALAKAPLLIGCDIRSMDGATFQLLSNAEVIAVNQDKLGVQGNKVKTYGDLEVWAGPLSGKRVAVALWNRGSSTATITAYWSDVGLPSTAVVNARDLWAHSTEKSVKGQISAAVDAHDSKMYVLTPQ

SMILES	percentage inhibition (β-D-glucosidase) [%]	percentage inhibition [1] [%]	percentage inhibition (β-D-galactosidase) [%]	inhibition at 200 µM [2] [%]	inhibition at 200 µM (β-glucuronidase [3]) [%]	percentage inhibition [4] [%]	IC50 [4] [µM]	inhibition at 200 µM (Amyloglucosidase) [%]	inhibition at 200 µM (β-glucuronidase [5]) [%]	inhibition at 200 µM (α-D-glucosidase [6]) [%]	inhibition at 200 µM (α-L-fucosidase) [%]	inhibition at 200 µM (α-D-galactosidase) [%]	inhibition at 200 µM (α-D-giucosidase) [%]	inhibition at 400 µM (glycogen phosphorylase b) [%]	percentage inhibition (Naringinase) [%]	inhibition at 200 µM (α-D-mannosidase) [%]	percentage inhibition (α-D-glucosidase [7]) [%]	percentage inhibition (β-D-mannosidase) [%]	IC50 (β-glucuronidase [3]; bovine β-glucuronidase, read-out: IC50 against the bovine β-glucuronidase) [µM]	inhibition at 200 µM (α-D-mannosidase; 0.2 mM, α-D-mannosidase, Jack bean (Canavalia ensiformis), negative value = stabilisation/promotion) [%]
O=C(O)CCCNCC1(O)OCC(O)C(O)C1O (stereo not shown) [1-Deoxy-1-(N-γ-aminobutyric acid)fructose]	−0.9	−6.3	1.3	-19.2	-1.2	55.3	200	-2.9	-0.8	-4.2	-1.3	-7.1	-4.2	5.5	0.2	-6.2	0.7	−10.3	–	–
N=C(N)NCCCC(NCC1(O)OCC(O)C(O)C1O)C(=O)O [N2-β-D-Fructopyranos-1-yl-Arginine, 5-carbamimidamido-2-{[(2,3,4,5-tetrahydroxytetrahydro-2H-pyran-2-yl)methyl]amino}pentanoic acid]	7.6	−0.8	−3.9	-15.3	85.2	88.5	7.7	15	-9	-6	-9.3	3.4	-1.4	14.2	4.1	–	−1.7	−8.1	101	35.2
